In patent publication US20140221499A1, “NOVEL RODENT CONTROL AGENTS AND USES THEREOF” (priority 2011, published 2014):

Columns and labels:
Assay type in all cases: cell-based
Details in all cases: FIG. 11A, functional with or without 'Rho tag', EC50 ± s.e.m., 4-parameter Hill equation
rTAAR8c = molecular target: T1, rTAAR8c (Rattus norvegicus, UniProt Q923Y0); test: CRE-SEAP reporter gene assay in HEK293 cells transfected with rTAAR8c
T1 construct: Full Taar coding regions were cloned into pcDNA3.1; expressed in transfected cells; host or cells: HEK293
T1 sequence (Q923Y0 1-344): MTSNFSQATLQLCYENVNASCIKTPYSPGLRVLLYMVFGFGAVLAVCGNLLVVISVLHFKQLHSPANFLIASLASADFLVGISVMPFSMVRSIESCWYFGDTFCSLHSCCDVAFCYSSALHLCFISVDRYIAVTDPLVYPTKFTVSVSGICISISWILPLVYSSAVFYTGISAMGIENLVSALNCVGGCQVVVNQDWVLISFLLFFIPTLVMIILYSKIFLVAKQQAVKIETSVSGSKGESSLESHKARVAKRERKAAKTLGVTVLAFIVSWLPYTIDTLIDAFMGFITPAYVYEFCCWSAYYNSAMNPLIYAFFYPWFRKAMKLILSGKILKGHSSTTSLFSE
Procedure: (§1) FIG. 11 illustrates the dose-dependent responses of TAARs to amines. HEK293 cells were cotransfected with plasmids encoding CRE-SEAP and rTAARs (a) or mTAARs (b), incubated with concentrations of ligands indicated, and assayed for reporter activity (triplicates±s.d.). EC50 values (±s.e.m, bottom right) were calculated using SigmaPlot (Systat Software) and a 4-parameter Hill equation.
(§2) The following mixes (10 μM of each indicated compounds) were tested for their ability to activate rat TAARs. Mix 1: butylamine, dibutylamine, hexylamine. Mix 2: 2-aminopentane, isoamylamine, isobutylamine, isopropylamine. Mix 3: N,N-dimethylcyclohexylamine, 1-methylindole, tryptamine, phenylethylamine. Mix 4: indole, 1-methylpyrrolidine, 1-methylpiperidine, pyrrolidine. […]
(§3) Full Taar coding regions were cloned into pcDNA3.1-(Invitrogen) with or without a 5′ DNA extension of 69 bp encoding the first 20 amino acids of bovine rhodopsin followed by a cloning linker ([…]). […] Fluorescence was measured on an EnVision plate reader (Perkin Elmer) and SEAP activity graphed as relative fluorescence of a phosphatase substrate.
(§4) Here, we set out to identify agonists for additional mouse and rat TAARs. […] Transfected cells were incubated with test chemicals, and phosphatase activity was quantified with a fluorescent substrate as a reporter for TAAR activation. […]

rTAAR9 = molecular target: T2, rTAAR9 (Rattus norvegicus, UniProt Q923Y6); test: CRE-SEAP reporter gene assay in HEK293 cells transfected with rTAAR9
T2 construct: Full Taar coding regions were cloned into pcDNA3.1; expressed in transfected cells; host or cells: HEK293
T2 sequence (Q923Y6 1-338): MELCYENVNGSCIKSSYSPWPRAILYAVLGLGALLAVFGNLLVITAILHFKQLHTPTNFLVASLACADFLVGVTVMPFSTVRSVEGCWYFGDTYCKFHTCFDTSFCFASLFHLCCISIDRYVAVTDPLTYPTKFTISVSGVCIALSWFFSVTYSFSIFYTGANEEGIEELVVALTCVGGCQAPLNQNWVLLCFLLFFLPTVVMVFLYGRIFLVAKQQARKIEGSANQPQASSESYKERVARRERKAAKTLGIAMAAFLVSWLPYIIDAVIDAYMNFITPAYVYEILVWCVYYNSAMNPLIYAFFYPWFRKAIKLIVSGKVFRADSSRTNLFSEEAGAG
Procedure: as §1, §2, §3, §4

rTAAR7d = molecular target: T3, rTAAR7d (Rattus norvegicus, UniProt Q923X5); test: CRE-SEAP reporter gene assay in HEK293 cells transfected with rTAAR7d; design: Full Taar coding regions were cloned into pcDNA3.1; expressed in transfected cells; host or cells: HEK293
T3 sequence (Q923X5 1-358): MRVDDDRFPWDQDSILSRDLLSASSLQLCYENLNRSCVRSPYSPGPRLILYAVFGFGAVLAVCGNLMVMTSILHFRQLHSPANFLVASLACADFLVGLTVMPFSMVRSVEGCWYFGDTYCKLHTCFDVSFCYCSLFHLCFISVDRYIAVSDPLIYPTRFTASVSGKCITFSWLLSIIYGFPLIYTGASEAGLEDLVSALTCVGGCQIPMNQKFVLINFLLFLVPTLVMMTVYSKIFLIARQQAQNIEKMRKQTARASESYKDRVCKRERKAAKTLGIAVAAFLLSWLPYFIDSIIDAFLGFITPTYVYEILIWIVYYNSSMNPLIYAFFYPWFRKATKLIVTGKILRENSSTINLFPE
Procedure: as §1, §2, §3, §4

`CN(C)C1CCCCC1` [N,N-DIMETHYLCYCLOHEXYLAMINE, N,N-dimethylcyclohexylamine] gave an EC50 (rTAAR8c) of 0.55 ± 0.19 µM, an EC50 (rTAAR9) of 26.6 ± 1.9 µM and an EC50 (rTAAR7d) of 4.6 ± 1.1 µM.
